The values below come from US7612065B2, “Inhibitors of c-JUN N-terminal kinases (JNK)” (priority 2007, dated 2009).

Bounds are passed on as bounds.

For the assay, the target named is T1, JNK3 (Homo sapiens, UniProt P53779).
T1 construct: One such construct encodes amino acid residues Ser40-Glu402 of JNK3α1 and is preceded by Met and Gly residues; Met-Gly (initiation methionine plus glycine added for the NcoI site); made in house; host or cells: E. coli BL21 (DE3)
As to the kind of experiment: JNK inhibition assay: spectrophotometric coupled-enzyme assay with activated JNK3. The class given is biochemical. The settings on record: activated JNK3 10 nM, 10 μM ATP, 200 μM EGF receptor peptide, 30° C., competitive inhibition model. The method in brief: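 Activated (doubly phosphorylated, MKK7(DD)-activated) human JNK3, 10 nM, preincubated 10 min at 30 °C with inhibitor in 0.1 M HEPES pH 7.5, 10 mM MgCl2, 200 μM EGF receptor peptide, PK/LDH-coupled. Started with 10 μM ATP; A340 decrease followed at 30 °C. Ki from competitive inhibition model fit.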

T1 sequence (P53779 40-402): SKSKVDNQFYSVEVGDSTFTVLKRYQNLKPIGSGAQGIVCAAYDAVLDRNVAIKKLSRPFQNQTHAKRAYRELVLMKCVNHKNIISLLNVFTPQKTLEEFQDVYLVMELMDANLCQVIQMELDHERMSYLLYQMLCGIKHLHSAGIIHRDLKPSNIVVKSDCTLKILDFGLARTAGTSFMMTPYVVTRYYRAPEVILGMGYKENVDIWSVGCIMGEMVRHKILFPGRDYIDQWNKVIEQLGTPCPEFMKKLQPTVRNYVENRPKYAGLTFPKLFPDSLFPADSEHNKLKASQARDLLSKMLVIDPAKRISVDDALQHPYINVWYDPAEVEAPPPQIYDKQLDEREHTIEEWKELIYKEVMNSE

A word on the Ki: it is a dissociation constant, usually derived from enzyme kinetics or from competition with a known ligand. On to `CS(=O)(=O)c1ccc(CN2C(=O)/C(=N\O)c3ccccc32)cc1` [Compound 67], for which the Ki is no less than 1000 nM.

For `O=C1/C(=N\O)c2c(F)cc(F)cc2N1Cc1cc(F)cc2c1OCOC2` [Compound 286], the Ki was less than 1000 nM. Take `O=Cc1ccccc1-c1ccc2c(c1)N(Cc1cc(F)cc3c1OCOC3)C(=O)/C2=N\O` [Compound 315]: the Ki was less than 1000 nM. On to `COc1cc(CN2C(=O)/C(=N\O)c3cc(F)ccc32)cc(OC)c1` [Compound 84], for which the Ki is less than 1000 nM. `COC(=O)c1cccc(CN2C(=O)/C(=N/O)c3ccc(-c4ccsc4)cc32)c1` [Compound 185]: the Ki is no less than 1000 nM. As for `COc1cc(CN2C(=O)/C(=N\O)c3ccc(Br)cc32)cc(OC)c1` [Compound 151], the Ki is less than 1000 nM. Consider `O=C(O)c1ccc(CNc2ccc3c(c2)/C(=N/O)C(=O)N3Cc2cc(F)cc3c2OCOC3)cc1` [Compound 303], for which the Ki is no less than 1000 nM.

Take `O=C(NCCc1ccccn1)c1ccc2c(c1)N(Cc1cc(F)cc3c1OCOC3)C(=O)/C2=N\O` [Compound 239]: the Ki was no less than 1000 nM.

As to `COc1cccc(C(=O)Nc2ccc3c(c2)/C(=N/O)C(=O)N3Cc2ccccc2)c1` [Compound 120], the inhibitory constant (Ki) was no less than 1000 nM. `O=C1/C(=N\O)c2c(Br)cccc2N1Cc1cc(F)cc2c1OCOC2` [Compound 201]: the Ki was less than 1000 nM. As for `Cc1ccc2c(c1)/C(=N/O)C(=O)N2Cc1cccc(C(F)(F)F)c1` [Compound 1], the Ki was no less than 1000 nM. Regarding `COC(=O)CC(=O)Nc1ccc2c(c1)N(Cc1cc(F)cc3c1OCOC3)C(=O)/C2=N\O` [Compound 259], the Ki is less than 1000 nM. In the case of `C=Cc1cccc2c1/C(=N/O)C(=O)N2Cc1cc(F)cc2c1OCOC2` [Compound 307], the Ki was less than 1000 nM.

Consider `CC(C)S(=O)(=O)Nc1ccc2c(c1)N(Cc1cc(F)cc3c1OCOC3)C(=O)/C2=N\O` [Compound 264], for which the Ki was no less than 1000 nM. In the case of `O=C(NCc1ccc(F)cc1)c1ccc2c(c1)N(Cc1cc(F)cc3c1OCOC3)C(=O)/C2=N\O` [Compound 227], the Ki is less than 1000 nM. Consider `O=C1/C(=N\O)c2ccccc2N1Cc1cccc([N+](=O)[O-])c1` [Compound 62], for which the Ki was less than 1000 nM. For the compound `O=C1/C(=N\O)c2cc(Br)ccc2N1Cc1ccccc1F` [Compound 29], the Ki is no less than 1000 nM.

With `COc1ccc(-c2ccc3c(c2)N(Cc2cc(F)cc4c2OCOC4)C(=O)/C3=N\O)cc1OC` [Compound 332], the Ki is less than 1000 nM. As to `COC(=O)c1cccc2c1/C(=N/O)C(=O)N2Cc1cc(F)cc2c1OCOC2` [Compound 244], the Ki was no less than 1000 nM. In the case of `CN1CCCC1CCNC(=O)c1ccc2c(c1)N(Cc1cc(F)cc3c1OCOC3)C(=O)/C2=N\O` (stereo not drawn) [Compound 297], the Ki was no less than 1000 nM. Turning to `COc1ccc(CNc2ccc3c(c2)/C(=N/O)C(=O)N3Cc2cc(F)cc3c2OCOC3)cc1O` [Compound 305], the Ki was no less than 1000 nM. To `CC(=O)Nc1cccc(-c2ccc3c(c2)/C(=N/O)C(=O)N3Cc2cc(F)cc3c2OCOC3)c1` [Compound 279] belongs no less than 1000 nM.

`COc1ccccc1CNC(=O)c1ccc2c(c1)N(Cc1cc(F)cc3c1OCOC3)C(=O)/C2=N\O` [Compound 231]: the Ki was no less than 1000 nM.

As for `O=C(c1ccccc1)c1ccc2c(c1)/C(=N/O)C(=O)N2Cc1cc(F)cc2c1OCOC2` [Compound 302], the Ki was no less than 1000 nM. On to `Cc1cc(C)c2c(c1)/C(=N/O)C(=O)N2Cc1ccccn1` [Compound 110], for which the Ki was no less than 1000 nM. With `O=C(Nc1ccc2c(c1)/C(=N/O)C(=O)N2Cc1ccccc1)c1ccccc1` [Compound 115], the Ki is no less than 1000 nM.

As for `Cc1cccc(CN2C(=O)/C(=N\O)c3cc(Cl)ccc32)c1` [Compound 49], the Ki was no less than 1000 nM. Regarding `Cc1cccc(CN2C(=O)/C(=N\O)c3cc([N+](=O)[O-])ccc32)c1` [Compound 34], the Ki was no less than 1000 nM.

Turning to `O=C(Nc1ccc2c(c1)N(Cc1cc(F)cc3c1OCOC3)C(=O)/C2=N\O)c1ccco1` [Compound 226], the Ki was less than 1000 nM. On to `COc1cc(CN2C(=O)/C(=N\O)c3cc(NC(=O)c4cccc(OC)c4)ccc32)cc(OC)c1` [Compound 121], for which the Ki was no less than 1000 nM.
